From patent publication US10670605B2, “Cysteine reactive probes and uses thereof” (The Scripps Research Institute, priority 2015, dated 2020)
Values belong to the molecule of their own block, whether it stands above or below them.

Key:
Experiment in all cases: Competitive isoTOP-ABPP in situ (fragment-treated cells)
Type in all cases: cell-based
[1] = biological target: T1, cysteines in MDA-MB-231 and Ramos cells (Homo sapiens, UniProt Q2NL82)
T1 sequence (Q2NL82 1-804): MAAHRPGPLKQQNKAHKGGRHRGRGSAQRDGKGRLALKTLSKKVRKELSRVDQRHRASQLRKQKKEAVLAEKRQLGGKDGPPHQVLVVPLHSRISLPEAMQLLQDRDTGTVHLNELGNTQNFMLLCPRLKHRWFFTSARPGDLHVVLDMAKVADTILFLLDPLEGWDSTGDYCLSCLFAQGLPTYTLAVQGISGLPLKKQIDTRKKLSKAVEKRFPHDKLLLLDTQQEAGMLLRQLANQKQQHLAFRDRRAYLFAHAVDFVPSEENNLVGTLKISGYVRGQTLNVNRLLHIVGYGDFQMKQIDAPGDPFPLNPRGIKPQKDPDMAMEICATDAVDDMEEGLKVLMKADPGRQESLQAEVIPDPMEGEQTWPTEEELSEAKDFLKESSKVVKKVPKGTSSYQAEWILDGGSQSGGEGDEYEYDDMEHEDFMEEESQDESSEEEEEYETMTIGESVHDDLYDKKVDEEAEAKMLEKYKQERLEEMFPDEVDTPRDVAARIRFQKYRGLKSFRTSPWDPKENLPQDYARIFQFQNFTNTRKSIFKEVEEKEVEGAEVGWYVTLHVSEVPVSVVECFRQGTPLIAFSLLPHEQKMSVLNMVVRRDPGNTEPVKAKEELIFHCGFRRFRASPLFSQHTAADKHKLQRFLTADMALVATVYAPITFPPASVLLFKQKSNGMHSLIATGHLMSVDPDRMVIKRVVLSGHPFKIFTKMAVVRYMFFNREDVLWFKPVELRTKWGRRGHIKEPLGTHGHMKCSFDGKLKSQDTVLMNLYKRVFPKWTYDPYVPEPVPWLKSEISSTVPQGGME

[2] = biological target: cysteines in MDA-MB-231 and Ramos cells (Homo sapiens, UniProt Q96NY7)
[3] = biological target: T2, cysteines in MDA-MB-231 and Ramos cells (Homo sapiens, UniProt Q96EB1)
T2 sequence (Q96EB1 1-424): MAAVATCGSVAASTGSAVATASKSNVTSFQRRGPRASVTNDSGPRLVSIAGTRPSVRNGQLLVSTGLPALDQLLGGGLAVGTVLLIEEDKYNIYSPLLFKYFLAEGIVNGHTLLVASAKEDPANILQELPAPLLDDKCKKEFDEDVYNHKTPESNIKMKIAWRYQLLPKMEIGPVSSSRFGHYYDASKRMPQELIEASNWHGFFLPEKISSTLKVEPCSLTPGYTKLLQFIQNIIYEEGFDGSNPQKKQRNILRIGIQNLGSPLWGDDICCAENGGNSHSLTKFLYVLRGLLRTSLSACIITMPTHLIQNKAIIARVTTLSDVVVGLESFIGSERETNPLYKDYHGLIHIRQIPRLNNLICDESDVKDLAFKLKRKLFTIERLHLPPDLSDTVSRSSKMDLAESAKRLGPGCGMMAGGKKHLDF

[4] = biological target: cysteines in MDA-MB-231 and Ramos cells (Homo sapiens, UniProt P45984)
[5] = biological target: T3, cysteines in MDA-MB-231 and Ramos cells (Homo sapiens, UniProt P19447)
T3 sequence (P19447 1-782): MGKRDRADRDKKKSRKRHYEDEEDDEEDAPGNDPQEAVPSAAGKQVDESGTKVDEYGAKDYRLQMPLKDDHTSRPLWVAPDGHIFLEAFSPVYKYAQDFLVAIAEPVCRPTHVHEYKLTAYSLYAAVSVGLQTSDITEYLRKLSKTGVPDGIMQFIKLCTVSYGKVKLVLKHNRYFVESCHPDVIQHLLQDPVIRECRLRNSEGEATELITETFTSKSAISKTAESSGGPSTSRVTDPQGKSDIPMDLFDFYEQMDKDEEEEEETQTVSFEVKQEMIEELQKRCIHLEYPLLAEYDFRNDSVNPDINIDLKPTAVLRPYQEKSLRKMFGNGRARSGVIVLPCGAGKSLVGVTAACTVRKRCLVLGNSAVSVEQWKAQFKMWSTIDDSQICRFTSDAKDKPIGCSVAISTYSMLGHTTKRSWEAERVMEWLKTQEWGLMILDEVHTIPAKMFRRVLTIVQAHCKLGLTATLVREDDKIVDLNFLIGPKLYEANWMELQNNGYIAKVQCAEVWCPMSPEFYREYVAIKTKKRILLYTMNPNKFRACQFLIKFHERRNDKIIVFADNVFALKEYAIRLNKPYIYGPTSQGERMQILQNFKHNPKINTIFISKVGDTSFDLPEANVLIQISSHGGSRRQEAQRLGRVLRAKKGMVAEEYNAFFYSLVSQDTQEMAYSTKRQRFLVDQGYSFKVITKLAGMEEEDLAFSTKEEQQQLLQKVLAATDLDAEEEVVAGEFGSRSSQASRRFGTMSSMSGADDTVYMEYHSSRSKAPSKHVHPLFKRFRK

Sequence of cysteines in MDA-MB-231 and Ramos cells (Homo sapiens, UniProt P45984) (P45984 whole entry): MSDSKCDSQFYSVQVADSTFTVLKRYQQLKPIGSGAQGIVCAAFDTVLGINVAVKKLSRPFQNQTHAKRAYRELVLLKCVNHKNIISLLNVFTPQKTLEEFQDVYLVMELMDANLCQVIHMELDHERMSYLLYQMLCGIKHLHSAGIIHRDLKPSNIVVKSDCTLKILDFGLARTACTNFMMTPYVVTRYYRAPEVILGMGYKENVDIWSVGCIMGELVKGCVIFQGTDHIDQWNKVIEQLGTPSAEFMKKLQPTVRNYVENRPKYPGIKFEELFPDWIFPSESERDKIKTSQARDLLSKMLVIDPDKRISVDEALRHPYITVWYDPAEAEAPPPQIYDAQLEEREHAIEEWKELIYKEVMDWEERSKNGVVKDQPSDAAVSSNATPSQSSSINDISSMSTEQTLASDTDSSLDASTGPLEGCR
Sequence of cysteines in MDA-MB-231 and Ramos cells (Homo sapiens, UniProt Q96NY7) (Q96NY7 whole entry): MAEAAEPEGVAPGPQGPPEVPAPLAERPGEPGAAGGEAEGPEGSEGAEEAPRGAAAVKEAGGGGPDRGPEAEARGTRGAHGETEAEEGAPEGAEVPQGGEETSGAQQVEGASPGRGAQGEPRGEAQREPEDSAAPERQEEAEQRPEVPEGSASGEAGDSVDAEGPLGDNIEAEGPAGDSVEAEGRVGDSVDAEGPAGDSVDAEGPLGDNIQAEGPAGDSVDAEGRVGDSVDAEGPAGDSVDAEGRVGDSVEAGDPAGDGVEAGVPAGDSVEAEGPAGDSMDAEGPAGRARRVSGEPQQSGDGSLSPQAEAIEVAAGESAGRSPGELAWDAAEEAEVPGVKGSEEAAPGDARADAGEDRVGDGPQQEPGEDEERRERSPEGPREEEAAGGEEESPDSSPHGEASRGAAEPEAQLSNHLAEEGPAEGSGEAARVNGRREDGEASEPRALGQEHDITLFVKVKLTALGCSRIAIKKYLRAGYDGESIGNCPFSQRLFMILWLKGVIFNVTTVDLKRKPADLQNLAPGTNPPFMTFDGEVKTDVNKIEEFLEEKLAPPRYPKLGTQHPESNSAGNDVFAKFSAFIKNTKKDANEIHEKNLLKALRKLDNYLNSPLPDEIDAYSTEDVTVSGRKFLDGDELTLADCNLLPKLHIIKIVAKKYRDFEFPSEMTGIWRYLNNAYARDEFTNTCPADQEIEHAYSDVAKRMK

- isoTOP-ABPP reactivity Q2NL82_C126 TSR1 ([1]; 200 μM, insitu, 231): 20.0
SMILES: COc1ccc2c(c1)CCCN2C(=O)CCl [compound 2]

- isoTOP-ABPP reactivity Q96NY7_C487 CLIC6 ([2]; 100 μM in situ 231): 20.0
- isoTOP-ABPP reactivity Q96EB1_C218 ELP4 ([3]; 100 μM in situ 231): 20.0
- isoTOP-ABPP reactivity Q2NL82_C126 TSR1 ([1]; 100 μM in situ 231): 13.8
- isoTOP-ABPP reactivity P45984_C177 MAPK9 ([4]; 100 μM in situ 231): 12.0
SMILES: COc1ccc(C2CC(c3cccs3)=NN2C(=O)CCl)cc1 (stereo not drawn) [compound 4]

- isoTOP-ABPP reactivity Q96NY7_C487 CLIC6 ([2]; 200 μM, insitu, 231): 5.1
- isoTOP-ABPP reactivity P45984_C177 MAPK9 ([4]; 200 μM, insitu, 231): 20.0
- isoTOP-ABPP reactivity P19447_C342 ERCC3 ([5]; 200 μM, insitu, 231): 12.4
SMILES: COc1cc2c(cc1OC)CN(C(=O)CCl)CC2 [compound 8]

- isoTOP-ABPP reactivity Q96NY7_C487 CLIC6 ([2]; 200 μM, insitu, 231): 3.6
- isoTOP-ABPP reactivity Q96EB1_C218 ELP4 ([3]; 200 μM, insitu, 231): 8.4
SMILES: O=C(CCl)N1CCC(Cc2ccccc2)CC1 [compound 9]

- isoTOP-ABPP ratio Q96NY7_C487 ([2]; 200 μM, insitu, 231): 3.2
- isoTOP-ABPP ratio, cysteine Q96EB1_C218 ([3]; 200 μM, insitu, 231): 1.1
- isoTOP-ABPP ratio, cysteine Q2NL82_C126 ([1]; 200 μM, insitu, 231): 4.9
- isoTOP-ABPP ratio P45984_C177 ([4]; 200 μM, insitu, 231): 20.0
- isoTOP-ABPP ratio P19447_C342 ([5]; 200 μM, insitu, 231): 20.0
SMILES: O=C(CCl)N1CCN(S(=O)(=O)c2ccccc2F)CC1 [compound 10]

- isoTOP-ABPP ratio Q96NY7_C487 ([2]; 100 μM in situ 231): 3.1
- isoTOP-ABPP ratio P45984_C177 ([4]; 100 μM in situ 231): 0.9
- isoTOP-ABPP ratio P19447_C342 ([5]; 100 μM in situ 231): 0.7
SMILES: Cn1cc(S(=O)(=O)N2CCOCC2)cc1C(=O)NC(=O)CCl [compound 11]

- isoTOP-ABPP ratio Q96NY7_C487 ([2]; 200 μM, insitu, 231): 20.0
- isoTOP-ABPP ratio, cysteine Q2NL82_C126 ([1]; 200 μM, insitu, 231): 20.0
- isoTOP-ABPP ratio P45984_C177 ([4]; 200 μM, insitu, 231): 2.1
- isoTOP-ABPP ratio P19447_C342 ([5]; 200 μM, insitu, 231): 6.7
SMILES: O=C(CCl)NC(=O)NC12CC3CC(CC(C3)C1)C2 [compound 12]

- isoTOP-ABPP ratio Q96NY7_C487 ([2]; 200 μM, insitu, 231): 1.9
- isoTOP-ABPP ratio, cysteine Q96EB1_C218 ([3]; 200 μM, insitu, 231): 1.2
- isoTOP-ABPP ratio, cysteine Q96EB1_C218 ([3]; 200 μM, insitu, ramos): 1.7
- isoTOP-ABPP ratio P19447_C342 ([5]; 200 μM, insitu, 231): 1.1
SMILES: O=C(CCl)NCCc1c[nH]c2ccccc12 [compound 13]

- isoTOP-ABPP ratio Q96NY7_C487 ([2]; 200 μM, insitu, 231): 1.2
- isoTOP-ABPP ratio, cysteine Q96EB1_C218 ([3]; 200 μM, insitu, 231): 0.7
- isoTOP-ABPP ratio, cysteine Q2NL82_C126 ([1]; 200 μM, insitu, 231): 1.5
- isoTOP-ABPP ratio P19447_C342 ([5]; 200 μM, insitu, 231): 2.0
SMILES: O=C(CCl)NC12CC3CC(CC(C3)C1)C2 [compound 21]

- isoTOP-ABPP ratio Q96EB1_C218 ([3]; 200 μM, insitu, 231): 0.6
- isoTOP-ABPP ratio Q2NL82_C126 ([1]; 200 μM, insitu, 231): 0.4
- isoTOP-ABPP ratio P45984_C177 ([4]; 200 μM, insitu, 231): 0.5
SMILES: CC(C)CCOCCNC(=O)CCl [compound 27]

- isoTOP-ABPP ratio Q96EB1_C218 ([3]; 200 μM, insitu, ramos): 1.1
- isoTOP-ABPP ratio P45984_C177 ([4]; 200 μM, insitu, ramos): 1.7
SMILES: O=C(CCl)N1CCN(CC(=O)N2CCOCC2)CC1 [compound 29]

- isoTOP-ABPP ratio Q96NY7_C487 ([2]; 200 μM, insitu, 231): 0.5
SMILES: C=CC(=O)N(Cc1cccnc1)c1cc(C(F)(F)F)cc(C(F)(F)F)c1 [compound 31]

- isoTOP-ABPP ratio Q96EB1_C218 ([3]; 200 μM, insitu, 231): 1.3
- isoTOP-ABPP ratio Q2NL82_C126 ([1]; 200 μM, insitu, 231): 0.9
- isoTOP-ABPP ratio P19447_C342 ([5]; 200 μM, insitu, 231): 1.0
SMILES: C=CC(=O)Nc1cc(F)c(N2CCN(C(=O)OC(C)(C)C)CC2)c(F)c1 [compound 38]

- isoTOP-ABPP ratio Q96NY7_C487 ([2]; 200 μM, insitu, 231): 0.4
- isoTOP-ABPP ratio Q2NL82_C126 ([1]; 200 μM, insitu, 231): 0.8
- isoTOP-ABPP ratio P45984_C177 ([4]; 200 μM, insitu, 231): 0.5
- isoTOP-ABPP ratio P19447_C342 ([5]; 200 μM, insitu, 231): 0.7
SMILES: Cc1ccc(C=C(C#N)C(=O)NCCN2CCOCC2)cc1 [compound 41]

- isoTOP-ABPP ratio Q96NY7_C487 ([2]; 200 μM, insitu, 231): 1.8
- isoTOP-ABPP ratio Q96EB1_C218 ([3]; 200 μM, insitu, 231): 20.0
- isoTOP-ABPP ratio Q2NL82_C126 ([1]; 200 μM, insitu, 231): 20.0
- isoTOP-ABPP ratio P19447_C342 ([5]; 200 μM, insitu, 231): 5.9
SMILES: CC1CCc2ccccc2N1C(=O)CCl (stereo not drawn) [compound 45]

- isoTOP-ABPP ratio Q2NL82_C126 ([1]; 200 μM, insitu, 231): 1.9
SMILES: O=C(CCl)Nc1cccc2ncccc12 [compound 51]
